From patent publication EP0075895A2, “Pharmaceutical amides, and preparation, formulations and use thereof” (THE WELLCOME FOUNDATION LIMITED, priority 1981, dated 1983)
pIC50: −log10 of the molar value. Counter-ions that a name gives are not always drawn.

Target: T1, enkephalinase Al (Rattus norvegicus, UniProt P07861)
T1 construct: the solubilised enzymes contained in the supernatent separated by DEAE-cellulose column chromatograph; from tissue; host or cells: rat striatum (washed membrane pellet, solubilised with Triton X-100, then DEAE-cellulose and Sephacryl S.300 chromatography)
T1 sequence (P07861 1-750): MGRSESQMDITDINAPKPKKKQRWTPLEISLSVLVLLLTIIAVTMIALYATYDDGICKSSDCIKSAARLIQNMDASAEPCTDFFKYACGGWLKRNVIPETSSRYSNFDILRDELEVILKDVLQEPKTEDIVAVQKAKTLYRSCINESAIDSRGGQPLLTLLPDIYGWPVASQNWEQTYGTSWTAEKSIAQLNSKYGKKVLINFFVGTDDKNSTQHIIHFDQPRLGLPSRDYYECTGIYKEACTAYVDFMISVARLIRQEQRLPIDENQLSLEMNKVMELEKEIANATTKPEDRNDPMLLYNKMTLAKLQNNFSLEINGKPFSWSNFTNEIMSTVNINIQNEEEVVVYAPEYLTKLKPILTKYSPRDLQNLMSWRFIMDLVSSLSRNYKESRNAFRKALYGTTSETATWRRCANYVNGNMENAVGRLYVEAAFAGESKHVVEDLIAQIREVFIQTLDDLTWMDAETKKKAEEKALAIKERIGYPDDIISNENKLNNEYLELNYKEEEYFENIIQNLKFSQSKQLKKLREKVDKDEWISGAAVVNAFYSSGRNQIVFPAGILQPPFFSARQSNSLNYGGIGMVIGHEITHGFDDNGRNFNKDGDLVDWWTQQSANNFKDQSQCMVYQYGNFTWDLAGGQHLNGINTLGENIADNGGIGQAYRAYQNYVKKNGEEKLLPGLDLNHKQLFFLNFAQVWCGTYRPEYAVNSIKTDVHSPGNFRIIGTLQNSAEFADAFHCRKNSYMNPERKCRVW
Test: enkephalinase-inhibiting activity (3H-TGG generation from 3H-leucine enkephalin, TLC separation, scintillation counting)
Assay type: biochemical, Rats
Details: approximate IC50 determined graphically; concentration required for 50% inhibition of 3H-TGG generation; leucine enkephalin 5 x 10^-5M, 30°C
Description: Rats were killed by decapitation and the striata dissected out on ice. […] The resulting supernatent was discarded and the remaining pellet washed three times.
Enkephalinase-inhibiting activity was estimated by the following procedure.

Row | Compound | pIC50
1 | O=C(O)CNC(=O)[C@H](Cc1ccccc1)NP(=O)(O)O [compound 2, N-Phosphoryl-L-phenylalanyl-glycine trisodium salt] | 7.82
2 | N-(Phosphoryl-phenylalanyl)leucine [compound 1] | 8.15
